# Tests used:
# [1] = test system: cocklebur; assay: Test B pre/postemergence cocklebur; format: in vivo, Xanthium strumarium
# In short: (§1)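 Response is a visual 0-to-10 score relative to untreated plants, where 0 means no effect and 10 means complete control, taken twelve to sixteen days after application. Treatments went onto soil at planting and onto foliage of 1- to 4-leaf plants, using a surfactant-containing non-phytotoxic solvent.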
# [2] = test system: soybean; assay: Test B pre/postemergence soybean; format: in vivo, Glycine max
# In short: as §1
# [3] = test system: sugar beet; assay: Test B pre/postemergence sugar beet; format: in vivo, Beta vulgaris
# In short: as §1
# [4] = test system: wheat; assay: Test B pre/postemergence wheat; format: in vivo, Triticum aestivum
# In short: as §1
# [5] = test system: velvetleaf; assay: Test B pre/postemergence velvetleaf; format: in vivo, Abutilon theophrasti
# In short: as §1
# [6] = test system: duck salad; assay: Test B flood test duck salad; format: in vivo, Heteranthera limosa
# In short: (§2)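 Read-out is a visual response score from 0 (no effect) to 10 (complete control), assigned by comparison with untreated controls. Treatment was applied at the 2-leaf stage, and plants stayed in the greenhouse for twelve to sixteen days before scoring.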
# [7] = test system: corn; assay: Test B pre/postemergence corn; format: in vivo, Zea mays
# In short: as §1
# [8] = test system: surinam grass; assay: Test B pre/postemergence surinam grass; format: in vivo, Brachiaria decumbens
# In short: as §1
# [9] = test system: giant foxtail; assay: Test B pre/postemergence giant foxtail; format: in vivo, Setaria faberii
# In short: as §1
# [10] = test system: crabgrass; assay: Test B pre/postemergence crabgrass; format: in vivo, Digitaria sanguinalis
# In short: as §1
# [11] = test system: wild oat; assay: Test B pre/postemergence wild oat; format: in vivo, Avena fatua
# In short: as §1
# [12] = test system: smallflower flatsedge; assay: Test B flood test smallflower flatsedge; format: in vivo, Cyperus difformis
# In short: as §2
# [13] = test system: morningglory; assay: Test B pre/postemergence morningglory; format: in vivo, Ipomoea hederacea
# In short: as §1
# [14] = test system: purple nutsedge; assay: Test B pre/postemergence purple nutsedge; format: in vivo, Cyperus rotundus
# In short: as §1
# [15] = test system: blackgrass; assay: Test B pre/postemergence blackgrass; format: in vivo, Alopecurus myosuroides
# In short: as §1
# [16] = test system: rape; assay: Test B pre/postemergence rape; format: in vivo, Brassica napus
# In short: as §1
# [17] = Preemergence, Rate 62 g/ha, scale of 0 to 10 where 0 is no effect and 10 is complete control
# [18] = Preemergence, Rate 250 g/ha, scale of 0 to 10 where 0 is no effect and 10 is complete control
# [19] = Preemergence, Rate 500 g/ha, scale of 0 to 10 where 0 is no effect and 10 is complete control
# [20] = Rate 62 g/ha, Postemergence, scale 0 to 10, 0 no effect, 10 complete control
# [21] = Rate 125 g/ha, Postemergence, scale of 0 to 10 where 0 is no effect and 10 is complete control
# [22] = Rate 250 g/ha, Postemergence, scale of 0 to 10 where 0 is no effect and 10 is complete control
# [23] = Rate 500 g/ha, Postemergence, scale 0 to 10, 0 no effect, 10 complete control
# [24] = Rate 62 g/ha, headed Pre-emergence (flood test species), scale 0 to 10 (0 no effect, 10 complete control)
# [25] = Rate 125 g/ha, Pre-emergence, flood test species, scale 0 to 10 where 0 is no effect and 10 is complete control
# [26] = Rate 250 g/ha, Pre-emergence, flood-test species, scale 0 to 10, 0 is no effect, 10 is complete control
# [27] = Rate 500 g/ha, Pre-emergence, flood test species, scale 0 to 10 (0 no effect, 10 complete control)
smiles,measurement,setting,value
CC(C)N(C(=O)n1oc(=O)n(C2CC2)c1=O)c1ccc(F)cc1F [Compound 299],Cocklebur plant response rating,[1]; [17],0
same,Cocklebur plant response rating (0 to 10 scale),"[1]; Preemergence, Rate 125 g/ha",0
same,Cocklebur plant response rating,[1]; [18],0
same,Cocklebur plant response rating,[1]; [19],0
same,Cocklebur plant response rating,[1]; [20],0
same,Cocklebur plant response rating,[1]; [21],2
same,"Plant response rating, Cocklebur",[1]; [22],4
same,Cocklebur plant response rating,[1]; [23],5
same,Soybean plant response rating,[2]; [17],0
same,Soybean plant response rating (0 to 10 scale),"[2]; Preemergence, Rate 125 g/ha",0
same,Soybean plant response rating,[2]; [18],6
same,Soybean plant response rating,[2]; [19],7
same,Soybean plant response rating,[2]; [21],6
same,"Plant response rating, Soybean",[2]; [22],6
same,Sugarbeets plant response rating,[3]; [17],3
same,Sugarbeets plant response rating (0 to 10 scale),"[3]; Preemergence, Rate 125 g/ha",8
same,Sugarbeets plant response rating,[3]; [18],9
same,Sugarbeets plant response rating,[3]; [19],10
same,Sugarbeets plant response rating,[3]; [20],2
same,Sugarbeets plant response rating,[3]; [21],3
same,"Plant response rating, Sugarbeets",[3]; [22],4
same,Wheat plant response rating,[4]; [17],3
same,Wheat plant response rating (0 to 10 scale),"[4]; Preemergence, Rate 125 g/ha",7
same,Wheat plant response rating,[4]; [18],8
same,Wheat plant response rating,[4]; [19],8
same,Wheat plant response rating,[4]; [20],0
same,Wheat plant response rating,[4]; [21],3
same,"Plant response rating, Wheat",[4]; [22],6
same,Velvetleaf plant response rating,[5]; [17],6
same,Velvetleaf plant response rating (0 to 10 scale),"[5]; Preemergence, Rate 125 g/ha",7
same,Velvetleaf plant response rating,[5]; [18],8
same,Velvetleaf plant response rating,[5]; [19],8
same,Velvetleaf plant response rating,[5]; [20],0
same,Velvetleaf plant response rating,[5]; [21],0
same,"Plant response rating, Velvetleaf",[5]; [22],6
same,Ducksalad plant response rating,[6]; [24],0
same,Ducksalad plant response rating,[6]; [25],0
same,Ducksalad plant response rating,[6]; [26],0
same,Ducksalad plant response rating,[6]; [27],0
same,Corn plant response rating,[7]; [17],0
same,Corn plant response rating (0 to 10 scale),"[7]; Preemergence, Rate 125 g/ha",0
same,Corn plant response rating,[7]; [18],8
same,Corn plant response rating,[7]; [19],8
same,Corn plant response rating,[7]; [20],0
same,Corn plant response rating,[7]; [21],0
same,"Plant response rating, Corn",[7]; [22],3
same,Corn plant response rating,[7]; [23],4
same,B. signalgrass plant response rating,[8]; [17],6
same,"B. signalgrass plant response rating (0 to 10 scale, 0 is no effect, 10 is complete control)","[8]; Preemergence, Rate 125 g/ha",9
same,B. signalgrass plant response rating,[8]; [18],9
same,B. signalgrass plant response rating,[8]; [19],10
same,B. signalgrass plant response rating,[8]; [20],0
same,B. signalgrass plant response rating,[8]; [21],3
same,"Plant response rating, B. signalgrass",[8]; [22],7
same,B. signalgrass plant response rating,[8]; [23],8
same,Giant foxtail plant response rating,[9]; [17],9
same,Giant foxtail plant response rating (0 to 10 scale),"[9]; Preemergence, Rate 125 g/ha",10
same,Giant foxtail plant response rating,[9]; [18],10
same,Giant foxtail plant response rating,[9]; [19],10
same,Giant foxtail plant response rating,[9]; [20],7
same,Giant foxtail plant response rating,[9]; [21],7
same,"Plant response rating, Giant foxtail",[9]; [22],8
same,Crabgrass plant response rating,[10]; [17],6
same,Crabgrass plant response rating (0 to 10 scale),"[10]; Preemergence, Rate 125 g/ha",9
same,Crabgrass plant response rating,[10]; [18],9
same,Crabgrass plant response rating,[10]; [19],9
same,Crabgrass plant response rating,[10]; [20],0
same,Crabgrass plant response rating,[10]; [21],3
same,"Plant response rating, Crabgrass",[10]; [22],4
same,Wild oats plant response rating,[11]; [17],2
same,Wild oats plant response rating (0 to 10 scale),"[11]; Preemergence, Rate 125 g/ha",7
same,Wild oats plant response rating,[11]; [18],8
same,Wild oats plant response rating,[11]; [19],8
same,Wild oats plant response rating,[11]; [20],0
same,Wild oats plant response rating,[11]; [21],0
same,"Plant response rating, Wild oats",[11]; [22],3
same,S. Flatsedge plant response rating,[12]; [24],0
same,S. Flatsedge plant response rating,[12]; [25],0
same,S. Flatsedge plant response rating,[12]; [26],0
same,S. Flatsedge plant response rating,[12]; [27],0
same,Morningglory plant response rating,[13]; [17],0
same,Morningglory plant response rating (0 to 10 scale),"[13]; Preemergence, Rate 125 g/ha",2
same,Morningglory plant response rating,[13]; [18],6
same,Morningglory plant response rating,[13]; [19],7
same,Morningglory plant response rating,[13]; [20],3
same,Morningglory plant response rating,[13]; [21],5
same,"Plant response rating, Morningglory",[13]; [22],6
same,Nutsedge plant response rating,[14]; [17],0
same,Nutsedge plant response rating (0 to 10 scale),"[14]; Preemergence, Rate 125 g/ha",0
same,Nutsedge plant response rating,[14]; [20],0
same,Nutsedge plant response rating,[14]; [21],0
same,"Plant response rating, Nutsedge",[14]; [22],0
same,Blackgrass plant response rating,[15]; [17],9
same,Blackgrass plant response rating (0 to 10 scale),"[15]; Preemergence, Rate 125 g/ha",10
same,Blackgrass plant response rating,[15]; [18],10
same,Blackgrass plant response rating,[15]; [19],10
same,Blackgrass plant response rating,[15]; [20],7
same,Blackgrass plant response rating,[15]; [21],8
same,"Plant response rating, Blackgrass",[15]; [22],8
same,Blackgrass plant response rating,[15]; [23],9
same,Rape plant response rating,[16]; [17],1
same,Rape plant response rating (0 to 10 scale),"[16]; Preemergence, Rate 125 g/ha",8
same,Rape plant response rating,[16]; [18],10
same,Rape plant response rating,[16]; [19],10
same,Rape plant response rating,[16]; [20],1
same,Rape plant response rating,[16]; [21],3
same,"Plant response rating, Rape",[16]; [22],7
